US9040691B2, “Hydroxymethylaryl-substituted pyrrolotriazines as ALK1 inhibitors” (BAYER INTELLECTUAL PROPERTY GMBH, priority 2011, dated 2015)

Legend:
ALK1 kinase = ALK1 kinase (Homo sapiens (Human), UniProt P37023); test: ALK1 kinase assay (ProQinase protocol); assay type: biochemical; details: ProQinase radiometric assay, casein, γ-33P-ATP
Procedure: B-1b. ALK1 Kinase Assay (ProQinase Protocol)
ALK1 (Invitrogen, Carlsbad, Calif., USA) kinase activity was measured at ProQinase GmbH (Freiburg, Germany) in a radiometric assay using γ-^33P-ATP and casein (Sigma, St. Louis, Mo., USA) as substrate in 96-well PerkinElmer FlashPlates™ (Boston, Mass., USA). The compounds were tested at 10 concentrations in the range of 1×10^−4 M to 3×10^−9 M in a total volume of 50 μl with a final DMSO concentration of 1% each. The assay components were mixed in the order: • 20 μl assay buffer (70 mM HEPES-NaOH, pH 7.5, 3 mM MgCl2, 3 mM MnCl2, 2 μM sodium orthovanadate, 1.2 mM DTT); • 5 μl γ-^33P-ATP (1.0 μM in water, approx. 6×10^5 cpm per well); • 5 μl test compound solution (in 10% DMSO); • […] (200 μg/ml, 1.0 μg/50 μl final concentration)/enzyme (4 μg/ml, 20 ng/50 μl=5.5 nM final concentration) solution (1:1 mixture).
The reaction mixtures were incubated at 30° C. for 60 minutes and stopped by adding 50 μl 2% (v/v) phosphoric acid. The plates were aspirated and washed twice with 200 μl 0.9% (w/v) sodium chloride. Incorporation of ^33Pi was determined with a microplate scintillation counter (Microbeta, Wallac). All assays were performed using a BecicmanCoulter/SAGIAN™ Core System.
Median values obtained from unspecific substrate binding of labelled. ATP were set as background level, while median values measured in the absence of any inhibitor were considered to reflect full activity of ALK1 kinase. The background activity (ba) was subtracted from the full activity (fa) value as well as from the values obtained from the test compound containing samples (test compound activity, tea). The residual activity in the latter was calculated as follows: residual activity (%)=100×[(tca−ba)/(fa−ba)]
The residual activities for each concentration and the compound IC50 values were calculated using Quattro Workflow V3.1.0 (Quattro Research GmbH, Munich, Germany). The fitting model for the IC50 determinations was “Sigmoidal response (variable slope)” with parameters “top” fixed at 100% and “bottom” at 0%. The fitting method used was a least-squares fit.

[1] = test system: laser-induced choroidal neovascularisation; test: Systemic efficacy in the laser-induced choroidal neovascularization (CNV) model; assay type: in vivo, rat; details: Brown-Norway rats, i.p. once daily 50 mg/kg days 0-1 then 20 mg/kg
Procedure: B-3. Systemic Efficacy in the Laser-Induced Choroidal Neovascularization (CNV) Model
For this purpose, 16 pigmented Brown-Norway rats with no visible sign of ocular defects were selected and randomly divided into two groups of eight animals each. On day 0, the animals were anaesthetized by an intraperitoneal injection (15 mg/kg xylazine and 80 mg/kg ketamine). After instillation of one drop of 0.5% tropicamide to dilate the pupils, choroidal neovascularisation was induced by executing six 75 μm-sized choroidal burns around the optic disc of the right eyes using a 532 nm argon laser photocoagulation at 150 mW for 100 ms. […] The body weight of all animals was recorded before the start and once daily during the study.
An angiography was performed on day 21 using Heidelberg's Retinal Angiograph (HRA). After anaesthesia and pupillary dilation, 10% sodium fluorescein dye was injected subcutaneously, and images were recorded 10 min after dye injection. The vascular leakage of the fluorescein on the angiograms was evaluated by two examiners in a masked fashion and scored with 0 (no leakage) to 3 (strongly stained).
After euthanasia on day 23, the eyes were harvested and fixed in 4% paraformaldehyde solution for 1 hour at room temperature. […] The flat-mounted preparations were examined under a fluorescence microscope (Apotom) at 488 nm excitation wavelength. […]

Chain of ALK1 kinase (P37023 22-503): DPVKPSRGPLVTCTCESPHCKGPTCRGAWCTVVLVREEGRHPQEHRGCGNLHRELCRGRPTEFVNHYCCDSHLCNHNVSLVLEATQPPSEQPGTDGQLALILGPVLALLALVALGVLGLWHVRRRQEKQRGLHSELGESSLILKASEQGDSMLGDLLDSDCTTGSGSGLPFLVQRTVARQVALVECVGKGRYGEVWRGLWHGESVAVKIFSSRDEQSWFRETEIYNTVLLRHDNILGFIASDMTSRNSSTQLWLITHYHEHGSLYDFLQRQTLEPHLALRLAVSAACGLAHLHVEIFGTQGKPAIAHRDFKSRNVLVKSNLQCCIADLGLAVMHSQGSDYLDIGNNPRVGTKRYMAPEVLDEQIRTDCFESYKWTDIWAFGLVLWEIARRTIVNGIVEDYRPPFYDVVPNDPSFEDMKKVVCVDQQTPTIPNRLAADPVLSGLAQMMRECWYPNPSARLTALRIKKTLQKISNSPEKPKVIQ

IC50 (ALK1 kinase) | Structure (SMILES) | vascular leakage [angiography score] ([1]; angiography day 21, score 0-3) | choroidal neovascularisation lesion volume ([1]; day 23)
6.7 nM | Nc1ncnn2c1c(-c1cc(F)c(CO)c(F)c1)cc2[C@H]1CC[C@H](O)CC1 [Example 7, trans-4-[4-Amino-5-[3,5-difluoro-4-(hydroxymethyl)phenyl]pyrrolo[2,1-f][1,2,4]triazin-7-yl]-cyclohexanol] | – | –
3 nM | Nc1ncnn2c([C@@H]3CCCNC3)cc(-c3cc(F)c(CO)c(F)c3)c12 [Example 11, (4-{4-Amino-7-[(3R)-piperidin-3-yl]pyrrolo[2,1-f][1,2,4]triazin-5-yl}-2,6-difluorophenyl)methanol] | 0.68 ± 0.35 angiography score | 3.48 ± 0.40 μm^3 × 100 000
